From patent US9434688B2, “Indole derivatives as selective androgen receptor modulators (SARMS)” (Janssen Pharmaceutica, NV, priority 2004, dated 2016)
“And” between values parts separate entries of the source, which are not always exact repeats. Identical values can stand only once.

What was measured:
androgen receptor [1] = biological target: T1, androgen receptor (Rattus norvegicus, UniProt P15207); test: L929 Androgen Receptor Functional Assay, Adenovirus Transduction; assay type: cell-based; design: expressed in transfected cells; host or cells: L929 cells transduced with adenovirus AdEasy+rAR; details: concentration of 3000 nM, 3 µM
T1 sequence (P15207 1-902): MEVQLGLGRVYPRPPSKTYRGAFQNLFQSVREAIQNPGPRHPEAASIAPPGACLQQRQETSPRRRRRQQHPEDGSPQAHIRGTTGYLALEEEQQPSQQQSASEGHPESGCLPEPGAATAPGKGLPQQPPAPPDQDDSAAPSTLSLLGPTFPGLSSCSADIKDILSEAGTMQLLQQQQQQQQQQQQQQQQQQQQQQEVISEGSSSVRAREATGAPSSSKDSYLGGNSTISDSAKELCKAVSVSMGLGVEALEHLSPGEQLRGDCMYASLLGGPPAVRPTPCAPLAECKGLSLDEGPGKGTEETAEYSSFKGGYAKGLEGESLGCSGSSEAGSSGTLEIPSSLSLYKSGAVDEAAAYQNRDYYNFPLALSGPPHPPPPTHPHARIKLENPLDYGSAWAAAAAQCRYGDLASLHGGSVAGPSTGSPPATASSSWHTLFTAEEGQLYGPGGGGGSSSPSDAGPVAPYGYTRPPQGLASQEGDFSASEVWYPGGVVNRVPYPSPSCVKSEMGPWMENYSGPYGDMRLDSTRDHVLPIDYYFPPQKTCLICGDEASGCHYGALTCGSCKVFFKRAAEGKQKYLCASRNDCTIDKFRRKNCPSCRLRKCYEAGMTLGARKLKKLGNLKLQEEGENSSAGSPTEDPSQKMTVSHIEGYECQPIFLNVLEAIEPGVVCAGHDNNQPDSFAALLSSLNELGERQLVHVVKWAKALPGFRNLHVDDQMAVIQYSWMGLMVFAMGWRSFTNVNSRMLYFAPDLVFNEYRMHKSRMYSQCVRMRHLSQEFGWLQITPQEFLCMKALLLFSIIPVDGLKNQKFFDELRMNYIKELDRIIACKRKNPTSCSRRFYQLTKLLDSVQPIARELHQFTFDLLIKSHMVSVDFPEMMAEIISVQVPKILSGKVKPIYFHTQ
Protocol: L929 cells were plated in 96-well plates at 20,000 cells per well, in DMEM/F12 (GIBCO) containing 10% (v/v) charcoal-treated fetal bovine serum (Hyclone) and lacking phenol red. The plates were then incubated overnight at 37° C. in 5% (v/v) humidified CO2.
Test compound dilutions were prepared in 100% (v/v) DMSO, if necessary. Each dilution was made to 1250× the final desired assay concentration.
First, 2 mL of DMEM/F12 lacking phenol red was pipetted into the wells of a 2-mL 96-well assay block. Next, 4 μL of the 1250× test compound dilutions were pipetted into each well of the assay block. The mixtures within the well were then carefully mixed by pipette.
In a 15 mL or 50 mL sterile centrifuge tube, a 2.5 nM (2.5×) dilution of R1881 (methyl-trienolone) in DMEM/F12 lacking phenol red was prepared.
In a second 15 mL or 50 mL centrifuge tube a solution containing an equal volume of DMEM to the first and an equal volume of 100% (v/v) DMSO to the volume of R1881 used in the first tube was prepared.
In a 15 mL or 50 mL sterile centrifuge tube, a dilution in DMEM/F12 of the adenovirus AdEasy+rAR at an moi of 1:500 per well was prepared.
The medium was removed from the 96-well plates by inversion and dried, inverted, very briefly. As soon as possible after medium removal, 40 μL of the diluted unlabeled test compound was added to each well, in duplicate. To each well designated for antagonist testing was added 40 μL of the 2.5 nM R1881 dilution to the wells for antagonist testing. To each well designated for agonist testing was added 40 μL of the DMSO dilution. Then 20 μL of the diluted adenovirus were added to all wells. The plates were incubated for 48 hours at 37° C. in 5% (v/v) humidified CO2.
To each well was added 100 μL of Steady-Glo luciferase assay substrate (Promega) and the plates were placed on a rotary shaker for 1 min. The plates were then incubated at room temperature in the dark for one hour. The contents of each well were then transferred to a white microtiter plate (Packard) and read on a Luminoskan Ascent (Thermo Lab Systems).
L929 AR percent activity was determined by testing dilutions of the test compound using a concentration of 3000 nM unless otherwise noted. L929 percent inhibition was determined by testing dilutions of the test compound using a concentration of 3000 nM. […] Luciferase activity per well were measured and EC50s and IC50s determined by linear regression.

androgen receptor [2] = biological target: T1, androgen receptor; test: Androgen Receptor Binding Using Rat Ventral Prostate Cytosol; design: from tissue; host or cells: ventral prostate cytosol of castrated male Sprague Dawley or Wistar rats; details: 3 µM

CCSCC(O)c1cc2cc([N+](=O)[O-])c(C(F)(F)F)cc2[nH]1 (racemic) [compound 158] was tested, and the “% Activity” value (androgen receptor [1]; L929 agonist testing) was 3% and 2%, the “% Inhibition” value (androgen receptor [1]; L929 antagonist testing with R1881) was 21% and 29% and the “% Inhibition” value (androgen receptor [2]) was 52%.
